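Dose response: 5 concentrations. Exposure: 48 h. Format: 96-well plates. Endpoint: linear interpolation; highest concentration if not reached. GI50 is the concentration that inhibits growth by half.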 Activity calls are given as the source filed them. Cut-off read from the data, not from the text of the source: active = GI50 up to about 1.1 µM and inactive = higher.
Columns and labels:
Assay in all cases: DTP human tumour cell line panel, 48 h
UACC-257 = test system: UACC-257
SNB-19 = test system: SNB-19
Malme-3M = test system: Malme-3M
MOLT-4 = test system: MOLT-4
786-0 = test system: 786-0
CAKI-1 = test system: CAKI-1
SF-295 = test system: SF-295
U-251 = test system: U-251
HCT-15 = test system: HCT-15
SNB-75 = test system: SNB-75
SW-620 = test system: SW-620
MCF7 = test system: MCF7
SN12C = test system: SN12C
A498 = test system: A498
RPMI-8226 = test system: RPMI-8226
SK-OV-3 = test system: SK-OV-3
HCC 2998 = test system: HCC 2998
LOX IMVI = test system: LOX IMVI
SK-MEL-5 = test system: SK-MEL-5
ACHN = test system: ACHN
PC-3 = test system: PC-3
OVCAR-3 = test system: OVCAR-3
RXF 393 = test system: RXF 393
SF-268 = test system: SF-268
KM12 = test system: KM12
M14 = test system: M14
HT-29 = test system: HT-29
NCI/ADR-RES = test system: NCI/ADR-RES
Hs-578T = test system: Hs-578T
T47D = test system: T47D
TK-10 = test system: TK-10
DU-145 = test system: DU-145
COLO 205 = test system: COLO 205
UACC-62 = test system: UACC-62
SR = test system: SR
HOP-92 = test system: HOP-92
EKVX = test system: EKVX
IGROV-1 = test system: IGROV-1
A549 = test system: A549
BT-549 = test system: BT-549
UO-31 = test system: UO-31
HCT-116 = test system: HCT-116
MDA-MB-231 = test system: MDA-MB-231
OVCAR-8 = test system: OVCAR-8
HOP-62 = test system: HOP-62
NCI-H522 = test system: NCI-H522
HL-60 = test system: HL-60
SK-MEL-28 = test system: SK-MEL-28
K562 = test system: K562
CCRF-CEM = test system: CCRF-CEM
MDA-MB-435 = test system: MDA-MB-435
OVCAR-5 = test system: OVCAR-5
OVCAR-4 = test system: OVCAR-4
SF-539 = test system: SF-539
NCI-H23 = test system: NCI-H23
SK-MEL-2 = test system: SK-MEL-2
NCI-H460 = test system: NCI-H460
NCI-H226 = test system: NCI-H226

## Nc1ccccc1SCc1csc(-c2ccc(Cl)cc2)n1
UACC-257
  GI50: 26.5 µM (inactive)
SNB-19
  GI50: 32.3 µM (inactive)
Malme-3M
  GI50: 20.3 µM (inactive)
MOLT-4
  GI50: 4.39 µM (inactive)
786-0
  GI50: 19.9 µM (inactive)
CAKI-1
  GI50: 51.3 µM (inactive)
SF-295
  GI50: 41.2 µM (inactive)
U-251
  GI50: 20.3 µM (inactive)
HCT-15
  GI50: 26.1 µM
SNB-75
  GI50: 46.7 µM (inactive)
SW-620
  GI50: 29.2 µM (inactive)
MCF7
  GI50: 23.8 µM (inactive)
SN12C
  GI50: 16.6 µM (inactive)
A498
  GI50: 23.3 µM (inactive)
RPMI-8226
  GI50: 12.7 µM (inactive)
SK-OV-3
  GI50: 31.7 µM (inactive)
HCC 2998
  GI50: 16.4 µM (inactive)
LOX IMVI
  GI50: 16.9 µM (inactive)
SK-MEL-5
  GI50: 14.8 µM (inactive)
ACHN
  GI50: 25.6 µM (inactive)
PC-3
  GI50: 19.8 µM (inactive)
OVCAR-3
  GI50: 20.2 µM (inactive)
RXF 393
  GI50: 24.5 µM (inactive)
SF-268
  GI50: 22.8 µM (inactive)
KM12
  GI50: 20 µM (inactive)
M14
  GI50: 17.4 µM (inactive)
HT-29
  GI50: 23.6 µM (inactive)
NCI/ADR-RES
  GI50: 21.5 µM (inactive)
Hs-578T
  GI50: 28.2 µM (inactive)
T47D
  GI50: 5.07 µM (inactive)
TK-10
  GI50: 38.1 µM (inactive)
DU-145
  GI50: 34.5 µM (inactive)
COLO 205
  GI50: 18 µM (inactive)
UACC-62
  GI50: 20 µM (inactive)
SR
  GI50: 6.61 µM (inactive)
HOP-92
  GI50: 21.9 µM (inactive)
EKVX
  GI50: 25.9 µM (inactive)
IGROV-1
  GI50: 23 µM (inactive)
A549
  GI50: 24.5 µM (inactive)
BT-549
  GI50: 24.1 µM (inactive)
UO-31
  GI50: 15.8 µM (inactive)
HCT-116
  GI50: 29 µM (inactive)
MDA-MB-231
  GI50: 21.3 µM (inactive)
OVCAR-8
  GI50: 30.5 µM (inactive)
HOP-62
  GI50: 30.3 µM (inactive)
NCI-H522
  GI50: 10.7 µM (inactive)
HL-60
  GI50: 3.52 µM (inactive)
SK-MEL-28
  GI50: 30.5 µM (inactive)
K562
  GI50: 16.6 µM (inactive)
CCRF-CEM
  GI50: 5.37 µM (inactive)
MDA-MB-435
  GI50: 18.2 µM (inactive)
OVCAR-5
  GI50: 39.1 µM (inactive)
OVCAR-4
  GI50: 21.8 µM (inactive)
SF-539
  GI50: 22.2 µM (inactive)
NCI-H23
  GI50: 24.7 µM (inactive)
SK-MEL-2
  GI50: 16.4 µM (inactive)
NCI-H460
  GI50: 26.2 µM (inactive)
NCI-H226
  GI50: 20.7 µM (inactive)
